{"source": "patent US20110200662A1", "about": "“Method For The Treatment Of Proliferative Disorders Of The Eye” (priority 2008, published 2011)", "molecules": {"B1": {"name": "ranibizumab (antibody, chains of the INN, looked up, V domains shown)", "VH": "EVQLVESGGGLVQPGGSLRLSCAASGYDFTHYGMNWVRQAPGKGLEWVGWINTYTGEPTYAADFKRRFTFSLDTSKSTAYLQMNSLRAEDTAVYYCAKYPYYYGTSHWYFDVWGQGTLVTVSS", "VL": "DIQLTQSPSSLSASVGDRVTITCSASQDISNYLNWYQQKPGKAPKVLIYFTSSLHSGVPSRFSGSGSGTDFTLTISSLQPEDFATYYCQQYSTVPWTFGQGTKVEIK"}}, "key": {"cell proliferation": {"tested_on": "cell proliferation", "conditions": "cited from earlier work"}, "[1]": {"tested_on": "DNA repair response (RPA, γ-H2AX)", "conditions": "non-proliferating cells; cited from earlier work"}, "cellular DNA": {"tested_on": "cellular DNA", "conditions": "cited from earlier work"}, "[2]": {"tested_on": "approximately 60 different human cancer cell lines", "assay": "NCI DTP Human Tumor Cell Line Screen (colorimetric assay, 48 hours)", "format": "cell-based", "conditions": "average value across the cell lines, 48 hours incubation", "method": "FIG. 1 summarizes the screening results obtained with forty different anticancer agents in the National Cancer Institute (NCI) DTP Human Tumor Cell Line Screen in which approximately 60 different human cancer cell lines were incubated for 48 hours with the anticancer drugs. […] For details on the assay, find on the wide world web at dtp.nci.nih.gov/branches/btb/ivclsp. FIG. 1 presents for each drug the average value across the cell lines of the TGI, the LC50, and the ratio of LC50 to TGI.\nIn a preferred embodiment the drug is bizelesin. Bizelesin has a number of unexpected properties that make it highly suited for treating proliferative disorders of the eye. The drug is an ultra-potent irreversible inhibitor of cell proliferation. As few as 1 to approximately 10 bizelesin-DNA crosslinks can inhibit cell proliferation. The small number of drug molecules per cell needed to inhibit clonogenic potential limits collateral damage to cellular processes in nonproliferating cells. […] There is a large difference between the bizelesin concentration that inhibits cell proliferation and the concentration that kills cells. This unexpected property is in sharp contrast to typical anticancer drugs as evidence by the data shown in FIG. 1, which summarizes screening results obtained with forty different anticancer agents in the National Cancer Institute (NCI) DTP Human Tumor Cell Line Screen. […]"}, "[3]": {"tested_on": "HCT116 colon cancer cells", "conditions": "250 times the GC50 concentration for 4 days; cited from earlier work"}, "[4]": {"tested_on": "approximately 60 different human cancer cell lines", "conditions": "average value across the cell lines, 48 hours incubation; cited from earlier work"}, "[5]": {"tested_on": "choroidal neovascularization", "assay": "Laser induced mouse model of choroidal neovascularization, intravitreal injection", "conditions": "for inhibition of neovascularization in the area of the laser burn: single intravitreal dose of 0.6 ng, day 14", "text": "Details of the model are provided in Xie, B. et al., “Blockade of Sphingosine-1-phosphate Reduces Macrophage Influx and Retinal and Choroidal Neovascularization,” J Cell Physiol, 218(1): 192-8 (January 2009 Bizelesin was formulated in PBS as described in Example 1. In brief, 5-6 week old C57BL/6 mice on day 0 were anesthetized and choroidal neovascularization was induced by laser photocoagulation-induced rupture of Bruch's membrane. The mice were then given an intravitreal injection of 1 microliter of control diluent in one eye and in the contralateral fellow eye 1 microliter of solution containing 6 ng to 0.006 ng of Bizelesin. Ten mice were employed per dose level. On day 14 the mice were perfused with fluorescein-labeled dextran, the retinas were isolated, flat mounts prepared, and the area of neovascularization was determined with fluorescent microscopy and computerized image analysis."}, "[6]": {"conditions": "unless given intravascularly; cited from earlier work"}, "[7]": {"tested_on": "retinal neovascularization", "assay": "Mouse model of ischemic proliferative retinopathy, intravitreal injection", "experimental": "Intravitreal bizelesin was evaluated in the mouse model of ischemic proliferative retinopathy.\nBizelesin was dissolved in DMSO PharmaSolvent (Gaylord Chemical, Inc.) at 20 microgram/ml and filtered sterilized with a 0.2 micron Milliex-LG Millipore filter. […] The bizelesin solution was stored at −65 C or below. Immediately prior to administration the drug solution was thawed and diluted with sterile phosphate buffered saline (PBS).\nIn brief, for the ischemic proliferative retinopathy model, liters of C57BL/6 mice were exposed to 75% oxygen from P7 to P12 (P=age in days) and then returned to room air. On P12 the mice were anesthetized and given an intravitreal injection of 1 microliter of bizelesin solution or 1 microliter of control diluent. The dose of bizelesin ranged from 0.6 picogram to 0.6 nanograms. On the evening of P16 the mice were given an intravitreal injection of anti-mouse platelet endothelial cell adhesion molecule-1 (PECAM-1) antibody, which stain new blood vessels. On P17, the retinas were isolated, flat mounts prepared, and the area of neovascularization was determined with fluorescent microscopy and computerized image analysis."}, "retinal fibrosis": {"tested_on": "retinal fibrosis", "conditions": "long-term follow-up; cited from earlier work"}}, "data": [{"molecule": "Cc1c[nH]c2c1[C@@]13C[C@@H]1CN(C(=O)c1cc4cc(NC(=O)c5cc6ccccc6o5)ccc4[nH]1)C3=CC2=O", "note": "[adozelesin]", "values": [{"measurement": "GI50 (inhibition of cell proliferation)", "setting": "cell proliferation", "result": "picomolar to sub-picomolar range"}, {"measurement": "DNA repair response", "setting": "[1]", "result": "does not trigger A DNA repair response"}]}, {"molecule": "N.N.[Cl][Pt][Cl]", "note": "[cisplatin]", "values": [{"measurement": "DNA adducts formed at concentrations that inhibit cell growth by 50%", "setting": "cellular DNA", "result": "approximately 14,000"}]}, {"molecule": "Cc1c[nH]c2c(O)cc3c(c12)[C@H](CCl)CN3C(=O)c1cc2cc(NC(=O)Nc3ccc4[nH]c(C(=O)N5C[C@@H](CCl)c6c5cc(O)c5[nH]cc(C)c65)cc4c3)ccc2[nH]1", "note": "[bizelesin]", "values": [{"measurement": "ratio of LC50 to TGI", "setting": "[2]", "result": 480}, {"measurement": "apoptosis", "setting": "[3]", "result": "did not cause apoptosis"}, {"measurement": "TGI (drug concentration that completely inhibited cell growth)", "setting": "[4]", "result": "picomolar range"}, {"measurement": "clinical evidence of ocular toxicity", "setting": "[5]; intravitreal 6 ng to 0.006 ng", "result": "no clinical evidence of ocular toxicity"}, {"measurement": "inhibition of neovascularization in the area of the laser burn", "setting": "[5]", "result": "nearly complete inhibition"}, {"measurement": "inhibition of neovascularization in the area of the laser burn", "setting": "[5]; listed as Bizelesin", "result": "dramatic inhibition"}, {"measurement": "GI50 (inhibition of cell proliferation)", "setting": "cell proliferation", "result": "picomolar to sub-picomolar range"}, {"measurement": "systemic bioavailability", "setting": "[6]", "result": "poor systemic bioavailability"}, {"measurement": "clinical evidence of ocular toxicity", "setting": "[7]; intravitreal 0.6 nanogram", "result": "without any clinical evidence of ocular toxicity"}, {"measurement": "average area of neovascularization compared to diluent (p value)", "setting": "[7]; single dose of 0.06 ng", "result": "highly statistically significant"}, {"measurement": "average area of neovascularization compared to diluent (p value)", "setting": "[7]; single dose of 0.6 ng", "result": "highly statistically significant"}, {"measurement": "inhibition of proliferative retinopathy and neovascularization", "setting": "[7]; single intravitreal injection of 0.6 nanogram on P12, read on P17", "result": "nearly complete inhibition"}]}, {"molecule": "B1", "values": [{"measurement": "patients who developed retinal fibrosis", "setting": "retinal fibrosis", "result": 50, "unit": "%"}]}]}
